In patent US9931379B2, “Oxyntomodulin analogs and methods of making and using same” (The Research Foundation for The State University of New York, priority 2015, dated 2018):
Non-standard residues stand in square brackets, D forms with d. Residues, ends and D or L forms follow the SMILES beside them.

Tests used:
[1] = target: T1, GCGR (Homo sapiens, UniProt P47871); experiment: CRE-driven luciferase reporter assay, HEK293 cells overexpressing GCGR; type: cell-based; conditions: for GCGR activation, result in words: comparison
T1 construct: expressed in transfected cells
T1 sequence (P47871 26-477): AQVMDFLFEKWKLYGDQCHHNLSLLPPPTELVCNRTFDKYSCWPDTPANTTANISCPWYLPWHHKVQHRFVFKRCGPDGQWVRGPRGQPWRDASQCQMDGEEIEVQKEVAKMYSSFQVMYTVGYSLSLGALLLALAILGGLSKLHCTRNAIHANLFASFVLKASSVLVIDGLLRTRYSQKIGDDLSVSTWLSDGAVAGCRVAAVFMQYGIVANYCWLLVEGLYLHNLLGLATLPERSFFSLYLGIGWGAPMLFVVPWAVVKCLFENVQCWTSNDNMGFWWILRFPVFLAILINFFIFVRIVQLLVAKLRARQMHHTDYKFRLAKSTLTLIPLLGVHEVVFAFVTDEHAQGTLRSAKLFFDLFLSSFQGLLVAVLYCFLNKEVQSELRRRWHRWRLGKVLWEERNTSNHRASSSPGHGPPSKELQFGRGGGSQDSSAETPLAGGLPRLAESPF
Method: (§1) The surviving cells (referred to as CRE-HEK293) were expanded and then transfected with a G418 selective mammalian expression plasmid encoding human GCGR or GLP-1R, followed by geneticin selection (Life technologies, Carlsbad, Calif.). Single-colony stable cell lines expressing both CRE-luciferase and GCGR/GLP-1R were then established for in vitro activity assays.
(§2) HEK293-GCGR-CRE and HEK293-GLP-1R-CRE cells were seeded in a white 384-well plate at a density of 5,000 cells per well and cultured for 24 hours in DMEM with 10% FBS at 37° C. with 5% CO2. Cells were treated with different peptides in a dose dependent manner. After 24 hours, 10 μL of Bright-Glo reagent (Promega, Madison, Wis.) was added to each well and luminescence was determined using an Envision multilabel plate reader (PerkinElmer, Waltham, Mass.). The EC50 of each peptide was calculated using GraphPad Prism 6 software (GraphPad, San Diego, Calif.).

[2] = target: T2, GLP-1R (Homo sapiens, UniProt P43220); experiment: CRE-driven luciferase reporter assay, HEK293 cells overexpressing GLP-1R; type: cell-based
T2 construct: expressed in transfected cells
T2 sequence (P43220 24-463): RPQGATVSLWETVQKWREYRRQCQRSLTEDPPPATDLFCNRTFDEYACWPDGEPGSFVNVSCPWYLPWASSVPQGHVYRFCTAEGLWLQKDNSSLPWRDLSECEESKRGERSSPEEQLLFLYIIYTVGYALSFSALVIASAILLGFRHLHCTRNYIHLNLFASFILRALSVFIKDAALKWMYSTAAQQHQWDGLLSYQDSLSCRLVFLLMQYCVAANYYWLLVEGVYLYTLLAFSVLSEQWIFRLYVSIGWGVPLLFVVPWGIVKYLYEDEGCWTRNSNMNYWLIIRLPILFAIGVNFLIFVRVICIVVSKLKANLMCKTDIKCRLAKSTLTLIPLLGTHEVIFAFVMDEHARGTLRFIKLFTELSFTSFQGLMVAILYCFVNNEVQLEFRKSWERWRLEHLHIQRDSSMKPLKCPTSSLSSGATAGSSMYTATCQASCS
Method: as §1, §2

[3] = compared to its D,L counterpart, peptide 1

Compound | GCGR activation, result in words [1] | GLP-1R activation, result in words ([2]; comparison) | increase in GCGR activity [1, 3] | increase in GLP-1R activity [2, 3]
CC[C@H](C)[C@H](NC(=O)[C@H](CC(N)=O)NC(=O)[C@H](CC(N)=O)NC(=O)[C@H](CCCNC(=N)N)NC(=O)[C@H](CC(N)=O)NC(=O)[C@H](CCCNC(=N)N)NC(=O)[C@H](CCCCN)NC(=O)[C@@H](NC(=O)[C@H](CC(N)=O)NC(=O)[C@H](CCSC)NC(=O)[C@H](CC(C)C)NC(=O)[C@H](Cc1c[nH]c2ccccc12)NC(=O)[C@H](CS)NC(=O)[C@@H](NC(=O)[C@H](Cc1ccccc1)NC(=O)[C@H](CC(=O)O)NC(=O)[C@H](CCC(N)=O)NC(=O)[C@H](C)NC(=O)[C@H](CCCNC(=N)N)NC(=O)[C@@H](CS)NC(=O)[C@H](CO)NC(=O)[C@H](CC(=O)O)NC(=O)[C@H](CC(C)C)NC(=O)[C@H](Cc1ccc(O)cc1)NC(=O)[C@H](CCCCN)NC(=O)[C@H](CO)NC(=O)[C@H](Cc1ccc(O)cc1)NC(=O)[C@H](CC(=O)O)NC(=O)[C@H](CO)NC(=O)[C@@H](NC(=O)[C@H](Cc1ccccc1)NC(=O)[C@@H](NC(=O)CNC(=O)[C@H](CCC(N)=O)NC(=O)[C@@H](CO)NC(=O)[C@@H](N)Cc1c[nH]cn1)[C@@H](C)O)[C@@H](C)O)C(C)C)[C@@H](C)O)C(=O)N[C@@H](C)C(N)=O [peptide 1] (H-H[dS]QGTFTSDYSKYLDS[dC]RAQDFVCWLMNTKRNRNNIA-NH2) | more potently than peptide 2 | reduced potency | – | –
CC[C@H](C)[C@H](NC(=O)[C@H](CC(N)=O)NC(=O)[C@H](CC(N)=O)NC(=O)[C@H](CCCNC(=N)N)NC(=O)[C@H](CC(N)=O)NC(=O)[C@H](CCCNC(=N)N)NC(=O)[C@H](CCCCN)NC(=O)[C@@H](NC(=O)[C@H](CC(N)=O)NC(=O)[C@H](CCSC)NC(=O)[C@H](CC(C)C)NC(=O)[C@H](Cc1c[nH]c2ccccc12)NC(=O)[C@H](CS)NC(=O)[C@@H](NC(=O)[C@H](Cc1ccccc1)NC(=O)[C@H](CC(=O)O)NC(=O)[C@H](CCC(N)=O)NC(=O)[C@H](C)NC(=O)[C@H](CCCNC(=N)N)NC(=O)[C@H](CS)NC(=O)[C@H](CO)NC(=O)[C@H](CC(=O)O)NC(=O)[C@H](CC(C)C)NC(=O)[C@H](Cc1ccc(O)cc1)NC(=O)[C@H](CCCCN)NC(=O)[C@H](CO)NC(=O)[C@H](Cc1ccc(O)cc1)NC(=O)[C@H](CC(=O)O)NC(=O)[C@H](CO)NC(=O)[C@@H](NC(=O)[C@H](Cc1ccccc1)NC(=O)[C@@H](NC(=O)CNC(=O)[C@H](CCC(N)=O)NC(=O)[C@@H](CO)NC(=O)[C@@H](N)Cc1c[nH]cn1)[C@@H](C)O)[C@@H](C)O)C(C)C)[C@@H](C)O)C(=O)N[C@@H](C)C(N)=O [peptide 4] (H-H[dS]QGTFTSDYSKYLDSCRAQDFVCWLMNTKRNRNNIA-NH2) | – | – | roughly 2 fold | roughly 2 fold
CC[C@H](C)[C@H](NC(=O)[C@H](CC(N)=O)NC(=O)[C@H](CC(N)=O)NC(=O)[C@H](CCCNC(=N)N)NC(=O)[C@H](CC(N)=O)NC(=O)[C@H](CCCNC(=N)N)NC(=O)[C@H](CCCCN)NC(=O)[C@@H](NC(=O)[C@H](CC(N)=O)NC(=O)[C@H](CCSC)NC(=O)[C@H](CC(C)C)NC(=O)[C@H](Cc1c[nH]c2ccccc12)NC(=O)[C@H](CS)NC(=O)[C@@H](NC(=O)[C@H](Cc1ccccc1)NC(=O)[C@H](CC(C)C)NC(=O)[C@H](CCCNC(=N)N)NC(=O)[C@@H](NC(=O)[C@H](C)NC(=O)[C@H](CS)NC(=O)[C@H](CCC(=O)O)NC(=O)[C@H](CC(=O)O)NC(=O)[C@H](CC(C)C)NC(=O)[C@H](Cc1ccc(O)cc1)NC(=O)[C@H](CCCCN)NC(=O)[C@H](CO)NC(=O)[C@H](Cc1ccc(O)cc1)NC(=O)[C@H](CC(=O)O)NC(=O)[C@H](CO)NC(=O)[C@@H](NC(=O)[C@H](Cc1ccccc1)NC(=O)[C@@H](NC(=O)CNC(=O)[C@H](CCC(N)=O)NC(=O)[C@@H](CO)NC(=O)[C@@H](N)Cc1c[nH]cn1)[C@@H](C)O)[C@@H](C)O)C(C)C)[C@@H](C)CC)[C@@H](C)O)C(=O)N[C@@H](C)C(N)=O [peptide 8] (H-H[dS]QGTFTSDYSKYLDECAVRLFICWLMNTKRNRNNIA-NH2) | less potent | – | – | –
